# Results reported in PMC9090415, “Discovery of small molecule inhibitors of Plasmodium falciparum apicoplast DNA polymerase” (Journal of Enzyme Inhibition and Medicinal Chemistry, 2022).
# pIC50: −log10 of the molar value.
# Biological target: P. falciparum apicoplast DNA polymerase (Pf-apPOL) (Plasmodium falciparum, UniProt Q8ILY1)
# Test: Fluorescence-based high-throughput DNA polymerase assay (molecular beacon), primary screen and dose-response
# Type: biochemical
# In short: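 Single-point screening used 10 µM compound with 20 nM polymerase, 20 nM hairpin substrate and 6 µM dNTPs for 90 min at 25 °C. Confirmatory titrations (2.5–80 µM) followed fluorescence at three times, and IC50 was derived from a fit including a cooperativity term n.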
# P. falciparum apicoplast DNA polymerase (Pf-apPOL), sequence (Q8ILY1 entry or part of it): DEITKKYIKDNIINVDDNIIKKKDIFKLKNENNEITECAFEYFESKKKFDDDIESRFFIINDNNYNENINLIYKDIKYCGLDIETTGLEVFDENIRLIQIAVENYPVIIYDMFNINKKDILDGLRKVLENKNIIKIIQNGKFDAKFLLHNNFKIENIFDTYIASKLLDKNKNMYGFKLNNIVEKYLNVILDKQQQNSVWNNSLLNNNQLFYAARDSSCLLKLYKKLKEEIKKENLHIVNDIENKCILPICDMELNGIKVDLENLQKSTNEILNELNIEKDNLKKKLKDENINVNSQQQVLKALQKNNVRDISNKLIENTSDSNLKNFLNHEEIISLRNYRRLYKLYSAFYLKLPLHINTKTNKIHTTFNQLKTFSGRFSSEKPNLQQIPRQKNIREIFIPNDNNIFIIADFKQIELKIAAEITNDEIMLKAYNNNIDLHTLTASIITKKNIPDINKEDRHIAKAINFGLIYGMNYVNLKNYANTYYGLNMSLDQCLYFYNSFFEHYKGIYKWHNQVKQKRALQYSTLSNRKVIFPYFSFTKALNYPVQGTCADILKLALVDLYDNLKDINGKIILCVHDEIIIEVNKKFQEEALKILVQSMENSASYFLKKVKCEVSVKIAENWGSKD
smiles,measurement,setting,value
O=C(O)c1cc([N+](=O)[O-])c(N2CCN(c3cccc(C(F)(F)F)c3)CC2)c([N+](=O)[O-])c1 [KU0076747],% inhibition Apo pol 10',DRC-1; concentration 2.5; 10',9.057%
same,% inhibition Apol 90',DRC-1; concentration 2.5; 90',2.381%
same,% inhibition apPOL 180',DRC-1; concentration 2.5; 180',-1.314%
same,% inhibition Apo pol 10',DRC-1; concentration 5; 10',24.3374%
same,% inhibition Apol 90',DRC-1; concentration 5; 90',17.3572%
same,% inhibition apPOL 180',DRC-1; concentration 5; 180',9.492%
same,% inhibition Apo pol 10',DRC-1; concentration 10; 10',20.6042%
same,% inhibition Apol 90',DRC-1; concentration 10; 90',12.0526%
same,% inhibition apPOL 180',DRC-1; concentration 10; 180',7.5333%
same,% inhibition Apo pol 10',DRC-1; concentration 20; 10',54.2328%
same,% inhibition Apol 90',DRC-1; concentration 20; 90',47.5478%
same,% inhibition apPOL 180',DRC-1; concentration 20; 180',35.8091%
same,% inhibition Apo pol 10',DRC-1; concentration 40; 10',87.2694%
same,% inhibition Apol 90',DRC-1; concentration 40; 90',81.5158%
same,% inhibition apPOL 180',DRC-1; concentration 40; 180',74.4081%
same,% inhibition Apo pol 10',DRC-1; concentration 80 (unit not given); 10',98.3006%
same,% inhibition Apol 90',DRC-1; concentration 80; 90',92.5623%
same,% inhibition apPOL 180',DRC-1; concentration 80; 180',89.3704%
same,% inhibition Apo pol 5',DRC-2; 5'; concentration 10,10%
same,% inhibition Apol 40',DRC-2; 40'; concentration 2.5,10%
same,% inhibition Apol 40',DRC-2; 40'; concentration 40,63%
same,% inhibition Apol 40',DRC-2; 40'; concentration 80,75%
same,% inhibition ApPOL 90',DRC-2; 90'; concentration 2.5,10%
same,% inhibition ApPOL 90',DRC-2; 90'; concentration 40,63%
same,% inhibition apPOL 180',DRC-2; 180'; concentration 80,75%
same,% inhibition Apo pol 5',DRC-2; concentration 2.5; 5',9%
same,% inhibition Apol 40',DRC-2; concentration 2.5; 40',10%
same,% inhibition ApPOL 90',DRC-2; concentration 2.5; 90',10%
same,% inhibition apPOL 180',DRC-2; concentration 2.5; 180',5%
same,% inhibition Apo pol 5',DRC-2; concentration 5; 5',16%
same,% inhibition Apol 40',DRC-2; concentration 5; 40',17%
same,% inhibition ApPOL 90',DRC-2; concentration 5; 90',15%
same,% inhibition apPOL 180',DRC-2; concentration 5; 180',8.45%
same,% inhibition Apo pol 5',DRC-2; concentration 10; 5',10%
same,% inhibition Apol 40',DRC-2; concentration 10; 40',8.56%
same,% inhibition ApPOL 90',DRC-2; concentration 10; 90',8%
same,% inhibition apPOL 180',DRC-2; concentration 10; 180',2.65%
same,% inhibition Apo pol 5',DRC-2; concentration 20; 5',20%
same,% inhibition Apol 40',DRC-2; concentration 20; 40',22%
same,% inhibition ApPOL 90',DRC-2; concentration 20; 90',21%
same,% inhibition apPOL 180',DRC-2; concentration 20; 180',12%
same,% inhibition Apo pol 5',DRC-2; concentration 40; 5',54%
same,% inhibition Apol 40',DRC-2; concentration 40; 40',63%
same,% inhibition ApPOL 90',DRC-2; concentration 40; 90',63%
same,% inhibition apPOL 180',DRC-2; concentration 40; 180',56%
same,% inhibition Apo pol 5',DRC-2; concentration 80; 5',64%
same,% inhibition Apol 40',DRC-2; concentration 80; 40',75%
same,% inhibition ApPOL 90',DRC-2; concentration 80; 90',77%
same,% inhibition apPOL 180',DRC-2; concentration 80; 180',75%
same,DNA Pol,"primary screen value of the 186 hits; unit not given; 90 min, 10 µM",52
same,DNA Pol,"primary screen value; head prints only 'DNA Pol'; 90 min, 10 µM",52
COc1cc(/C=C2\S/C(=N/C(C)=O)NC2=O)cc(Br)c1OCC(=O)O [KU0057841],DNA Pol,"'DNA Pol'; screening value, unit not given; 90 min, 10 µM",27
same,% inhibition Apo pol 10',DRC-1; 10'; concentration 2.5,4.866%
same,% inhibition Apo pol 10',DRC-1; 10'; concentration 5,4.738%
same,% inhibition Apo pol 10',DRC-1; 10'; concentration 10,17.12%
same,% inhibition Apo pol 10',DRC-1; 10'; concentration 20,35.9073%
same,% inhibition Apo pol 10',DRC-1; 10'; concentration 40,63.4189%
same,% inhibition Apo pol 10',DRC-1; 10'; concentration 80,83.5237%
same,% inhibition Apol 90',DRC-1; 90'; concentration 2.5,3.601%
same,% inhibition Apol 90',DRC-1; 90'; concentration 5,-2.326%
same,% inhibition Apol 90',DRC-1; 90'; concentration 10,5.395%
same,% inhibition Apol 90',DRC-1; 90'; concentration 20,16.7076%
same,% inhibition Apol 90',DRC-1; 90'; concentration 40,36.5505%
same,% inhibition Apol 90',DRC-1; 90'; concentration 80,62.7524%
same,% inhibition apPOL 180',DRC-1; 180'; concentration 2.5,1.284%
same,% inhibition apPOL 180',DRC-1; 180'; concentration 5,-7.5244%
same,% inhibition apPOL 180',DRC-1; 180'; concentration 10,-2.004%
same,% inhibition apPOL 180',DRC-1; 180'; concentration 20,5.338%
same,% inhibition apPOL 180',DRC-1; 180'; concentration 40,19.6206%
same,% inhibition apPOL 180',DRC-1; 180'; concentration 80,44.2464%
same,% inhibition Apo pol 5',"DRC-2, 5', concentration 2.5",2.71%
same,% inhibition Apo pol 5',"DRC-2, 5', concentration 5",4.4%
same,% inhibition Apo pol 5',"DRC-2, 5', concentration 10",17%
same,% inhibition Apo pol 5',"DRC-2, 5', concentration 20",29%
same,% inhibition Apo pol 5',"DRC-2, 5', concentration 40",52%
same,% inhibition Apo pol 5',"DRC-2, 5', concentration 80",60%
same,% inhibition Apol 40',"DRC-2, 40', concentration 2.5",1.51%
same,% inhibition Apol 40',"DRC-2, 40', concentration 5",3.29%
same,% inhibition Apol 40',"DRC-2, 40', concentration 10",13%
same,% inhibition Apol 40',"DRC-2, 40', concentration 20",24%
same,% inhibition Apol 40',"DRC-2, 40', concentration 40",47%
same,% inhibition Apol 40',"DRC-2, 40', concentration 80",64%
same,% inhibition ApPOL 90',"DRC-2, 90', concentration 2.5",1.23%
same,% inhibition ApPOL 90',"DRC-2, 90', concentration 5",2.28%
same,% inhibition ApPOL 90',"DRC-2, 90', concentration 10",9.51%
same,% inhibition ApPOL 90',"DRC-2, 90', concentration 20",20%
same,% inhibition ApPOL 90',"DRC-2, 90', concentration 40",41%
same,% inhibition ApPOL 90',"DRC-2, 90', concentration 80",60%
same,% inhibition apPOL 180',"DRC-2, 180', concentration 2.5",1.62%
same,% inhibition apPOL 180',"DRC-2, 180', concentration 5",-1.41%
same,% inhibition apPOL 180',"DRC-2, 180', concentration 10",4%
same,% inhibition apPOL 180',"DRC-2, 180', concentration 20",14%
same,% inhibition apPOL 180',"DRC-2, 180', concentration 40",28%
same,% inhibition apPOL 180',"DRC-2, 180', concentration 80",49%
same,% inhibition Apo pol 5',conc 80 (unit not given); 5'; DRC-2,60%
same,% inhibition ApPOL 90',conc 80 (unit not given); 90'; DRC-2,60%
same,DNA Pol,"primary screen hit value, DNA Pol (186 hits); 90 min, 10 µM",27
Cc1ccccc1NC(=O)Cn1ccc2c(=O)[nH]ccc21 [Molecule 85],pIC50,"supplemental file 2, sheet IC50 nontoxic compounds; Pf-apPOL",5.04
